Usually MIC stands for the lowest concentration that inhibits growth of the organism.

Data set [1] in a line: Hygroscopicity / water uptake on storage in air. The format is physicochemical.
Data set [2] deals with B. subtilis. The experiment in a line: Relative potency, agar plate. In kind it is cell-based. As to conditions: standard: kanamycin A free base. The procedure: Compound IV, as recovered from this process, is identical with authentic product obtained by the method described in co-pending application, Ser. No. 221,378. M.p. 194° (dec.) [α]D^21 +85° (c=2, H2 O). […] (standard: kanamycin A free base).

The subject of data set [3] is Staphylococcus aureus A-9537. As to the kind of experiment: CD50 in lethally infected mice. The format is in vivo, Staphylococcus aureus (infected mice). As to conditions: for ED50: Staphylococcus aureus, A9537, sc, mice, subcutaneous, × 2 treatments (1 and 4 hours post-infection), test number 1, read-out: CD50 (curative dose, 50%); for effectiveness in infected mice (words): kanamycin A-sensitive strain. How it is done: (§1) ^b CD50 =curative dose, 50% (mg./kg./treated × number of
(§2) treatments). Mice were treated subcutaneously at 1 and 4 hours
(§3) post-infection when 2 treatment were administered and at 0, 2, 4 and 6
(§4) hours post-infection when 4 treatment weree given. Other aspects of the
(§5) test were carried out as described by Price et al. (J. of Antibiotics

Data set [4] relates to Escherichia coli A-15119. As to the kind of experiment: CD50 in lethally infected mice. In kind it is in vivo, Escherichia coli (infected mice). The conditions noted are these: for ED50: Escherichia coli, A15119, sc, mice, subcutaneous, × 2 treatments (1 and 4 hours post-infection), test number 1, read-out: CD50 (curative dose, 50%); for effectiveness in infected mice (words): kanamycin A-sensitive strain. How it is done:
as §1, §2, §3, §4, §5

Data set [5] concerns Escherichia coli A-20520. As to the kind of experiment: CD50 in lethally infected mice. The format is in vivo, Escherichia coli (infected mice). As to conditions: for ED50: Escherichia coli, A20520, sc, read-out: CD50 (curative dose, 50%); for effectiveness in infected mice (words): kanamycin-resistant strain. The procedure: as §1, §2, §3, §4, §5
Data set [6] concerns gram-positive and gram-negative bacteria. The experiment in a line: Antibacterial activity (MIC), overall comparison with kanamycin A. The conditions noted are these: in words. In kind it is cell-based. The text has this:
Illustrated below are two tables showing the minimal inhibitory concentrations (MIC's) of kanamycin A and compound IVa (BB-K8) against a variety of gram-positive and gram-negative bacteria as obtained by the Steers agar-dilution method (Table I) and the two-fold dilution method (Table 2). Mueller-Hinton Agar Medium was used in the study of Table 1 and Heart Infusion Broth was used in the study of Table 2.

Data set [7] concerns Escherichia coli A-15119. As to the kind of experiment: MIC, in vitro (Table 3). In kind it is cell-based. As to conditions: A15119, Mueller-Hinten agar, test number 1. The text has this:
(§6) ^a MIC =minimum inhibitory concentration (μg./ml.). Tests conducte
(§7) as described by Chisholm et al., (Antimicrob. Agents and
(§8) Chemotherapy-1969, p. 244, 1970) using Mueller-Hinten agar as the test

For data set [8], the system named is Staphylococcus aureus A-9537. The experiment in a line: MIC, in vitro (Table 3). The format is cell-based.
Description: as §6, §7, §8

In data set [9] the test system is Escherichia coli A-20520. The experiment in a line: MIC, in vitro (Table 3). In kind it is cell-based.
Description: as §6, §7, §8

Data set [10] is described as follows: Bioassay of column fractions (plate assays). The format is cell-based. As to conditions: pooled column fractions; BB-K8: average of 4 plate assays, ± standard deviation. An excerpt: *Average of 4 plate assays, ± standard deviation.
The mark [11] stands for this setting: mice, subcutaneous, × 4 treatments (0, 2, 4 and 6 hours post-infection), test number 2.

Converted amounts (≈) assume the structure as drawn. “And” between values parts separate entries of the source, which are not always exact repeats. Equal entries are not always repeated. Structures can show the parent of a compound that is named as a salt. Where two headings read alike, the source gives them in different places.

On to `NCC[C@H](O)C(=O)N[C@@H]1C[C@H](N)[C@@H](O[C@H]2O[C@H](CN)[C@@H](O)[C@H](O)[C@H]2O)[C@H](O)[C@H]1O[C@H]1O[C@H](CO)[C@@H](O)[C@H](N)[C@H]1O` [BB-K8^. 2H2 SO4, Disulfate Salt of 1-[L-(-)-γ-amino-α-hydroxybutyryl]-kanamycin A], for which the “water content after storage in air” value in data set [1] (Karl Fisher, in air at room temperature for 18 hours) was 9.55% and 9.89%. Moreover, the hygroscopicity entry in [1] (disulfate salt) was “hygroscopic but not deliquescent”.
As to `NCC[C@H](O)C(=O)N[C@@H]1C[C@H](N)[C@@H](O[C@H]2O[C@H](CN)[C@@H](O)[C@H](O)[C@H]2O)[C@H](O)[C@H]1O[C@H]1O[C@H](CO)[C@@H](O)[C@H](N)[C@H]1O` [Compound IV, 1-[L-(-)-γ-amino-α-hydroxybutyryl]-kanamycin A], the “Relative potency against B. subtilis” value in data set [2] was found to be 960 µg/mg. For the same compound, the ED50 in data set [3] is 2 mg/kg; in data set [4], 2 mg/kg; in data set [5] (mice, subcutaneous, × 2 treatments (1 and 4 hours post-infection), test number 1) it was 66 mg/kg; in data set [5] (setting [11]), 5 mg/kg. Besides, the “effectiveness in infected mice (words)” value in data set [3] is “equally effective”; in data set [3] (listed as compound IV) it was “slightly less active than kanamycin A”; in data set [4], “equally effective”; in data set [5], “marked protective action”. In addition, the “times more active in 4-treatment regimen rather than in 2-treatment one” value in data set [5] (mice, 4-treatment vs 2-treatment regimen) is “approximately 10 times”. In addition, the “antibacterial activity compared with kanamycin A” value in data set [6] is “excellent antibacterial activity that appears superior to kanamycin A itself”; in data set [6] (listed as compound IV) it was “superior to kanamycin A in activity, particularly against kanamycin A resistant organisms”. Moreover, the minimal inhibitory concentration (MIC) in [7] amounted to 2 µg/mL (≈ 3.42 µM); in data set [8] (A9537, Mueller-Hinten agar, test number 1, read-out: MIC) it was 1 µg/mL (≈ 1.71 µM); in [9] (A20520, Mueller-Hinten agar, test number 1, read-out: MIC), 2 µg/mL (≈ 3.42 µM). Also, the Bioassay in [10] is reported as 786±101.
As for `NCC1OC(OC2C(N)CC(N)C(OC3OC(CO)C(O)C(N)C3O)C2O)C(O)C(O)C1O` (centres unmarked) [Kanamycin A], the ED50 in [3] is 0.5 mg/kg; in data set [4] it was 4 mg/kg; in [5], 200 mg/kg. The “effectiveness in infected mice (words)” value is recorded as “equally effective” in [3], “equally effective” in data set [4] and “not very effective in vivo” in data set [5]. For the same compound, the “CD50 (curative dose, 50%)” value in data set [5] (setting [11]) is given as 200 mg./kg./treated × number of tr. Besides, the values for the MIC in data set [7], in data set [8] (A9537) and in [9] (A20520) were 4 µg/mL (≈ 8.26 µM), 2 µg/mL (≈ 4.13 µM) and 125 µg/mL (≈ 258 µM), respectively. Besides, the Bioassay in data set [10] amounted to 809.

For the origin of these results see patent US3974137A, “Process for the preparation of 1-[L-(-)-γ-amino-α-hydroxybutyryl]-kanamycin A (RD-1341A)” (priority 1974, dated 1976).
